The values that follow come from patent publication US20090239217A1, “STEM-LIKE CELLS IN BONE SARCOMAS” (University of Florida Research Foundation, Inc., priority 2008, published 2009).

One assay concerns osteosarcoma cultures. Put plainly: Tumor generation by osteosarcoma cells cultured with BMP4/7. The class given is in vivo. The settings on record: cells cultured in DMEM with 75-100 ng/ml BMP4/7; 10 weeks post-treatment. On the procedure: (§1) Cells were cultured in DMEM and 75-100 ng/ml of BMP4/7 (control cells were not cultured with BMP4/7).
Another assay has as its system Oct-4/EGFP expression. Put plainly: Oct-4/EGFP expression in osteosarcoma cultures treated in vitro. Format: cell-based. To be noted: osteosarcoma cultures in DMEM with 75-100 ng/ml BMP4/7; FIG. 13. The protocol:
as §1

For a further assay, the system named is Oct-4/GFP+ OS521 cells. Description: Tumor formation in NOD/SCID mice after in vitro pretreatment of Oct-4/GFP-enriched OS521 cells with differentiation inducers. Format: in vivo. The settings on record: 3×10^4 cells per mouse. An excerpt: It was hypothesized that if the Oct-4/GFP+ tumorigenic cells reflected a stem-like phenotype, their tumorigenic ability might also be inhibited by forced cellular differentiation. Therefore prior to delivery into the NOD/SCID mouse model, the Oct-4/GFP-enriched cell populations were pretreated in vitro with three different compounds known to be potent inducers of differentiation: ATRA, leukemia inhibitory factor (LIF), and recombinant bone morphogenetic protein (BMP) 4/7 heterodimer and evaluated their effect of each on tumorigenicity.
Following delivery of Oct-4/GFP transfected OS521 cells into NOD/SCID mice, cells isolated from the resultant tumors were sorted by FACS and the GFP-enriched population was plated in 12 well plates and treated with either LIF (10^4 to 0.5×10^2 U/ml), ATRA (1 μM), or recombinant BMP 4/7 (100 ng/ml) for 72 hours. Untreated cells were used as controls. Following the incubation period, 5 NOD/SCID mice per group were injected at 3×10^4 cells per mouse with cells from each treated pool and the mice were monitored for subsequent tumor formation. […] The BMPs are members of the TGF-β superfamily and are known to be potent agents of cellular differentiation, particularly with respect to chondro- and osteoinduction of mesenchymal progenitor cells. BMP 4/7 appears to inhibit the tumorigenesis of the Oct-4/GFP+ OS521 cells after transient induction.

Turning to “recombinant bone morphogenetic protein (BMP) 4/7 heterodimer [BMP 4/7]”, the “tumor generation by treated cells” value in the assay with osteosarcoma cultures was “have not yet generated tumors”. Besides, the Oct-4/EGFP expression entry with Oct-4/EGFP expression is “affects Oct-4/EGFP expression”. Further, the tumor formation entry in the assay with Oct-4/GFP+ OS521 cells (GFP-enriched OS521 cells treated with recombinant BMP 4/7 100 ng/ml for 72 hours, followed twelve weeks) is reported as “none of the mice in the BMP 4/7 treated group developed tumors by twelve weeks”.

In the case of leukemia inhibitory factor [LIF], the tumor formation result with Oct-4/GFP+ OS521 cells (GFP-enriched OS521 cells treated with LIF 10^4 to 0.5×10^2 U/ml for 72 hours) was “tumor formation by 5 weeks”.

With `CC1=C(/C=C/C(C)=C/C=C/C(C)=C/C(=O)O)C(C)(C)CCC1` [ATRA, reference compound], in the assay with Oct-4/GFP+ OS521 cells (GFP-enriched OS521 cells treated with ATRA 1 μM for 72 hours), the tumor formation result is “tumor formation by 5 weeks”.
